# Source: US11279733B2, “Peptide antibiotics” (priority 2017, dated 2022)
# Where two headings read alike, the source gives them in different places. Positions of bridges follow the written chain, without caps; N, C: chain ends. Non-standard residues stand in square brackets, D forms with d. Residues, ends and D or L forms follow the SMILES beside them. *: point of attachment. Decanoyl(3R-OH) = CCCCCCC[C@@H](O)CC(=O)*; Undecanoyl = CCCCCCCCCCC(=O)*; Lauroyl = CCCCCCCCCCCC(=O)*; dDab = NCC[C@@H](N)C(=O)O; Orn = NCCC[C@H](N)C(=O)O; dDap = NC[C@@H](N)C(=O)O; Dab = NCC[C@H](N)C(=O)O; Dap = NC[C@H](N)C(=O)O
# How the values were obtained:
# A. baumannii ATCC 19606 = conditions: ATCC 19606
# Summary of the method: (§1)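 Mid-log cultures grown in Mueller Hinton broth at 37° C were tested by 2-fold broth microdilution at 5×10^5 CFU/mL final. Compounds were dissolved in water and tested over a final range of 32 to 0.015 μg/mL.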
# A. baumannii GN_093 PmxR = conditions: GN 093 PmxR
# Summary of the method: as §1
# E. coli ATCC 25922 = conditions: ATCC 25922
# Summary of the method: as §1
# K. pneumoniae ATCC 13883 = conditions: ATCC 13883
# Summary of the method: as §1
# [1] = tested on: K. pneumoniae ATCC 700603, MDR; conditions: ATCC 700603
# Summary of the method: as §1
# [2] = tested on: K. pneumoniae ATCC BAA-2146, NDM-1 pos; conditions: ATCC BAA-2146
# Summary of the method: as §1
# [3] = tested on: K. pneumoniae GN_102 PmxR; conditions: GN 102 PmxR
# Summary of the method: as §1
# [4] = tested on: K. pneumoniae GN_106, PmxR; conditions: GN 106, PmxR
# Summary of the method: as §1
# P. aeruginosa ATCC 27853 = conditions: ATCC 27853
# Summary of the method: as §1
# [5] = tested on: P. aeruginosa GN_043, PmxR; conditions: for MIC, P. aeruginosa FADDI-PA070, PmxR: Table 5
# Summary of the method: as §1
# [6] = tested on: P. aeruginosa GN_105, PmxR; conditions: GN 105, PmxR
# Summary of the method: as §1
# [7] = tested on: S. aureus ATCC 25923, MSSA; conditions: ATCC 25923
# Summary of the method: as §1
# in vitro = conditions: human
# Experimental: Cytotoxicity of the synthesised peptides was evaluated by comparison with commercially available colistin (polymyxin E), polymyxin B (Sigma chemical Co., St. Louis, Mo., U.S.A.) and synthetic octapeptin C4 by conducting lactate dehydrogenase (LDH) assay. CC50 values calculated based on curve fitting of dose dependent inhibition of cell growth represented the cytotoxicity of the peptide. Human kidney 2 (HK2) cells were seeded as 2000 cells per well in a 384 well cell culture plate in a final volume of 20 μL in DMEM/F12 medium (Invitrogen #11330057), in which 10% of FBS was added. Cells were incubated for 24 hours at 37° C., 5% CO2 to allow cells to attach to the plates. Similar conditions were employed for HEK293 and HepG2 cytotoxicity assays.
# Cytotoxicity to HEK293 and HepG2 cells was determined using the resazurin assay (McMillian, M. K.; Li, L.; Parker, J. B.; Patel, L.; Zhong, Z.; Gunnett, J. W.; Powers, W. J.; Johnson, M. D. An improved resazurin-based cytotoxicity assay for hepatic cells; Cell Biol. Toxicol. 2002, 18, 157-173; O'Brien, J.; Wilson, I.; Orton, T.; Pognan, F. Investigation of the Alamar Blue (resazurin) fluorescent dye for the assessment of mammalian cell cytotoxicity. Eur. J. Biochem. 2000, 267, 5421-5426). In brief, HEK293 and HepG2 cells were seeded at 4000 cells/well in black-wall, clear-bottom 384-well plates (Corning, Australia) and incubated for 24 h at 37° C., 5% CO2. Compounds were then added into each well. After 24 h incubation, 5 μM resazurin was added per well and incubated at 37° C. for 2 h. Fluorescence intensity was then read using a Polarstar Omega with excitation/emission 560/590. The data was then analyzed using GraphPad Prism 6 software. CC50 values were determined using GraphPad Prism 6 software (Inc. La Jolla, Calif.).
SMILES,MIC A. baumannii ATCC 19606 (A. baumannii ATCC 19606),MIC A. baumannii GN_093 PmxR (A. baumannii GN_093 PmxR),MIC E. coli ATCC 25922 (E. coli ATCC 25922),MIC K. pneumoniae ATCC 13883 (K. pneumoniae ATCC 13883),"MIC K. pneumoniae ATCC 700603, MDR [1]","MIC K. pneumoniae ATCC BAA-2146, NDM-1 pos [2]",MIC K. pneumoniae GN_102 PmxR [3],"MIC K. pneumoniae GN_106, PmxR [4]",MIC P. aeruginosa ATCC 27853 (P. aeruginosa ATCC 27853),"MIC P. aeruginosa GN_105, PmxR [6]","MIC S. aureus ATCC 25923, MSSA [7]",CC50 at 24 h (in vitro),"MIC P. aeruginosa GN_043, PmxR ([5]; P. aeruginosa GN_043, PmxR)",also measured
"CCCCCCC[C@@H](O)CC(=O)N[C@H](CCN)C(=O)N[C@H]1CCNC(=O)[C@H](CC(C)C)NC(=O)[C@H](CN)NC(=O)[C@H](CCN)NC(=O)[C@H](CC(C)C)NC(=O)[C@@H](Cc2ccccc2)NC(=O)[C@H](CCN)NC1=O [compound 987, 3(R)OH-nC9CO-D-Dab-cyc[L-Dab-L-Dab-D-Phe-L-Leu-L-Dab-L-Dap-L-Leu]] ({Decanoyl(3R-OH)}-[dDab][Dab][Dab][dF]L[Dab][Dap]L; lactam 2-C)",1 mg/L,8 mg/L,8 mg/L,4 mg/L,4 mg/L,4 mg/L,16 mg/L,16 mg/L,2 mg/L,4 mg/L,16 mg/L,> 300 µM,,"MIC P. aeruginosa GN_043, PmxR ([5]; polymyxin-resistant): 2 mg/L"
"CCCCCCC[C@@H](O)CC(=O)N[C@H](CCN)C(=O)N[C@H]1CCNC(=O)[C@H](CC(C)C)NC(=O)[C@H](CCCCN)NC(=O)[C@H](CCN)NC(=O)[C@H](CC(C)C)NC(=O)[C@@H](Cc2ccccc2)NC(=O)[C@H](CCN)NC1=O [compound 989, 3(R)OH-nC9CO-D-Dab-cyc[L-Dab-L-Dab-D-Phe-L-Leu-L-Dab-L-Lys-L-Leu]] ({Decanoyl(3R-OH)}-[dDab][Dab][Dab][dF]L[Dab]KL; lactam 2-C)",8 mg/L,16 mg/L,4 mg/L,4 mg/L,2 mg/L,2 mg/L,4 mg/L,4 mg/L,2 mg/L,2 mg/L,16 mg/L,> 300 µM,,"MIC P. aeruginosa GN_043, PmxR ([5]; polymyxin-resistant): 2 mg/L"
"CCCCCCC[C@@H](O)CC(=O)N[C@H](CCN)C(=O)N[C@H]1CCNC(=O)[C@H](CC(C)C)NC(=O)[C@H](CCN)NC(=O)[C@H](CCN)NC(=O)[C@H](CC(C)C)NC(=O)[C@@H](Cc2ccccc2)NC(=O)[C@H](CCCN)NC1=O [compound 994, 3(R)OH-nC9CO-D-Dab-cyc[L-Dab-L-Orn-D-Phe-L-Leu-L-Dab-L-Dab-L-Leu]] ({Decanoyl(3R-OH)}-[dDab][Dab][Orn][dF]L[Dab][Dab]L; lactam 2-C)",,,,,,,,,,,,> 300 µM,,"MIC, A. baumannii ATCC 19606 (A. baumannii ATCC 19606): 32 mg/L; MIC, A. baumannii Cl Ptyela 10073 4512:2, PmxR (A. baumannii GN_093 PmxR): 32 mg/L; MIC, E. coli ATCC 25922 (E. coli ATCC 25922): 8 mg/L; MIC, K. pneumoniae ATCC 13883 (K. pneumoniae ATCC 13883): 4 mg/L; MIC, K. pneumoniae ATCC 700603, MDR [1]: 8 mg/L; MIC, K. pneumoniae ATCC BAA-2146, NDM-1 pos [2]: 8 mg/L; MIC, K. pneumoniae Cl Koprana 10065 0661:1, PmxR [3]: 4 mg/L; MIC, K. pneumoniae Cl 138-16347-20362, PmxR [4]: 4 mg/L; MIC, P. aeruginosa ATCC 27853 (P. aeruginosa ATCC 27853): 2 mg/L; MIC, P. aeruginosa FADDI-PA070, PmxR ([5]; polymyxin-resistant): >32 mg/L; MIC, P. aeruginosa PA9704, PmxR [6]: 8 mg/L; MIC, S. Aureus ATCC 25923, MSSA [7]: 32 mg/L"
"CCCCCCC[C@@H](O)CC(=O)N[C@H](CCN)C(=O)N[C@H]1CCNC(=O)[C@H](CC(C)C)NC(=O)[C@H](CCN)NC(=O)[C@H](CCN)NC(=O)[C@H](CC(C)C)NC(=O)[C@@H](Cc2ccccc2)NC(=O)[C@H](CCCCN)NC1=O [compound 995, 3(R)OH-nC9CO-D-Dab-cyc[L-Dab-L-Lys-D-Phe-L-Leu-L-Dab-L-Dab-L-Leu]] ({Decanoyl(3R-OH)}-[dDab][Dab]K[dF]L[Dab][Dab]L; lactam 2-C)",,,,,,,,,,,,> 300 µM,,"MIC, A. baumannii ATCC 19606 (A. baumannii ATCC 19606): >32 mg/L; MIC, A. baumannii Cl Ptyela 10073 4512:2, PmxR (A. baumannii GN_093 PmxR): 32 mg/L; MIC, E. coli ATCC 25922 (E. coli ATCC 25922): 8 mg/L; MIC, K. pneumoniae ATCC 13883 (K. pneumoniae ATCC 13883): 8 mg/L; MIC, K. pneumoniae ATCC 700603, MDR [1]: 8 mg/L; MIC, K. pneumoniae ATCC BAA-2146, NDM-1 pos [2]: 8 mg/L; MIC, K. pneumoniae Cl Koprana 10065 0661:1, PmxR [3]: 4 mg/L; MIC, K. pneumoniae Cl 138-16347-20362, PmxR [4]: 8 mg/L; MIC, P. aeruginosa ATCC 27853 (P. aeruginosa ATCC 27853): 4 mg/L; MIC, P. aeruginosa FADDI-PA070, PmxR ([5]; polymyxin-resistant): 8 mg/L; MIC, P. aeruginosa PA9704, PmxR [6]: 8 mg/L; MIC, S. Aureus ATCC 25923, MSSA [7]: 32 mg/L"
"CCCCCCC[C@@H](O)CC(=O)N[C@H](CCN)C(=O)N[C@H]1CCNC(=O)[C@H](CC(C)C)NC(=O)[C@H](CCN)NC(=O)[C@H](CCN)NC(=O)[C@H](CC(C)C)NC(=O)[C@H](Cc2ccccc2)NC(=O)[C@H](CCN)NC1=O [compound 5002, 3(R)OH-nC9CO-D-Dab-cyc[L-Dab-L-Dab-L-Phe-L-Leu-L-Dab-L-Dab-L-Leu]] ({Decanoyl(3R-OH)}-[dDab][Dab][Dab]FL[Dab][Dab]L; lactam 2-C)",>32 mg/L,>32 mg/L,32 mg/L,>32 mg/L,16 mg/L,16 mg/L,32 mg/L,>32 mg/L,4 mg/L,>32 mg/L,32 mg/L,> 300 µM,8 mg/L,
"CCCCCCCCCCC(=O)N[C@H](CN)C(=O)N[C@H]1CCNC(=O)[C@H](CC(C)C)NC(=O)[C@H](CCN)NC(=O)[C@H](CCN)NC(=O)[C@H](CC(C)C)NC(=O)[C@@H](Cc2ccccc2)NC(=O)[C@H](CCN)NC1=O [compound 9296, nC10CO-D-Dap-cyc[L-Dab-L-Dab-D-Phe-L-Leu-L-Dab-L-Dab-L-Leu]] (Undecanoyl-[dDap][Dab][Dab][dF]L[Dab][Dab]L; lactam 2-C)",16 mg/L,32 mg/L,4 mg/L,4 mg/L,2 mg/L,4 mg/L,2 mg/L,4 mg/L,2 mg/L,32 mg/L,,63 µM,1 mg/L,
"CCCCCCCCCCCC(=O)N[C@H](CN)C(=O)N[C@H]1CCNC(=O)[C@H](CC(C)C)NC(=O)[C@H](CCN)NC(=O)[C@H](CCN)NC(=O)[C@H](CC(C)C)NC(=O)[C@@H](Cc2ccccc2)NC(=O)[C@H](CCN)NC1=O [compound 9297, nC11CO-D-Dap-cyc[L-Dab-L-Dab-D-Phe-L-Leu-L-Dab-L-Dab-L-Leu]] (Lauroyl-[dDap][Dab][Dab][dF]L[Dab][Dab]L; lactam 2-C)",16 mg/L,8 mg/L,2 mg/L,4 mg/L,4 mg/L,8 mg/L,8 mg/L,8 mg/L,4 mg/L,8 mg/L,,33 µM,2 mg/L,
